Measured values taken from US4578392A, “Pyrazolo[1,5-a]pyridine derivatives and anti-allergic compositions containing them” (Kyorin Pharmaceutical Co., Ltd., priority 1983, dated 1986).

Assays:
[1] = tested on: SRS-A-induced component of anaphylactic bronchoconstriction; test: Inhibitory activity on bronchial anaphylaxis in conscious guinea pigs (SRS-A preferentially involved in bronchoconstriction); assay type: in vivo, guinea pig; conditions: Cavia porcellus; oral; actively sensitized (egg albumin) conscious guinea pigs, 10 mg/kg diphenhydramine intraperitoneally, inhaled antigen; read-out: ED75 (oral dose required to protect 75% of animals from respiratory distress caused by antigen challenge)
Method: The effect of the compounds of this invention on bronchial anaphylactic reaction in vivo was evaluated using conscious guinea pigs in a condition where SRS-A was preferentially involved in bronchoconstriction (Boot, J. R. et al.: Int. Arch. Allergy Appl. Immunol. 67, 340 (1982)). The guinea pigs which had been sensitized actively with egg albumin 3 to 4 weeks prior were given intraperitoneally with 10 mg/kg diphenhydramine. In these animals, inhaled antigen caused a marked respiratory distress due to bronchoconstriction. The ED75 values in Table 7 indicate the oral dose of test compound required to protect 75% of animals from respiratory distress caused by antigen challenge.

SRS-A = test: Antagonistic action against SRS-A (SRS-A induced contraction of isolated guinea pig ileum); conditions: 3 U/ml SRS-A, 5 minutes incubation, tripelennamine and atropine in Tyrode solution
Method: The anti-SRS-A action of the compounds of this invention was evaluated using isolated guinea pig ileum. Short segments of guinea pig terminal ileum were suspended in Tyrode solution containing tripelennamine (3×10^-7 g/ml) and atropine (3×10^-7 g/ml) and their contractions induced by an addition to the organ bath of 3 U/ml SRS-A* were recorded. The ileum was again contracted after incubation with test compounds for 5 minutes by adding the same amount of SRS-A. The anti-SRS-A action is given in Table 6 as IC50 values which indicate the concentration of test compound required to inhibit SRS-A induced ileal contraction by 50%.
*: The SRS-A used in this experiment was prepared from anaphylactic guinea pig lungs. One unit of SRS-A refers to the amount required to produce a contraction of the guinea pig ileum equal in amplitude to that produced by 5 ng histamine base.

Antagonistic activity against SRS-A IC50 (SRS-A) [µg/mL] | Structure (SMILES) | ED75 [1] [mg/kg]
 | Cn1c(=O)c2[nH]cnc2n(C)c1=O [Aminophylline, reference compound] | 3.5
1.75 | CC(C)c1nn2ccccc2c1C(O)C(C)C (centres unmarked) [Example 5, 2-Isopropyl-3-(1-hydroxy-2-methylpropyl)pyrazolo[1,5-a]pyridine] | 0.48
10.3 | CC(C)c1nn2ccccc2c1C(O)C1CCCC1 (centres unmarked) [Example 6] | 
27 | CCC(O)c1c(C(C)C)nn2ccccc12 (centres unmarked) [Example 8, 2-isopropyl-3-(1-hydroxypropyl)pyrazolo[1,5-a]pyridine] | 
26.8 | CCCC(O)c1c(C(C)C)nn2ccccc12 (centres unmarked) [Example 9] | 
10.3 | Cc1nn2ccccc2c1C(O)C(C)C (centres unmarked) [Example 10] | 
16.4 | CCCc1nn2ccccc2c1C(O)CCC (centres unmarked) [Example 11] | 
4.9 | COc1ccc2c(C(O)C(C)C)c(C(C)C)nn2c1 (centres unmarked) [Example 13] | 0.5
1.75 | CCC(O)(c1c(C(C)C)nn2ccccc12)C(C)C (centres unmarked) [Example 15, 2-Isopropyl-3-(1-hydroxy-1-ethyl-2-methylpropyl)pyrazolo[1,5-a]pyridine] | 0.68
23.5 | CC(C)c1nn2ccccc2c1C(C)(O)C(C)C (centres unmarked) [Example 16] | 
2.03 | CCCC(O)(c1c(C(C)C)nn2ccccc12)C(C)C (centres unmarked) [Example 17] | 0.75
0.84 | CCCCC(O)(c1c(C(C)C)nn2ccccc12)C(C)C (centres unmarked) [Example 18] | 0.5
2.14 | CCCCCCC(O)(c1c(C(C)C)nn2ccccc12)C(C)C (centres unmarked) [Example 19] | 
1.51 | C=CCC(O)(c1c(C(C)C)nn2ccccc12)C(C)C (centres unmarked) [Example 20] | 0.5
6.6 | COC(c1c(C(C)C)nn2ccccc12)C(C)C (centres unmarked) [Example 21, 2-Isopropyl-3-(1-methoxy-2-methylpropyl)pyrazolo[1,5-a]pyridine] | 0.36
7.2 | CCOC(c1c(C(C)C)nn2ccccc12)C(C)C (centres unmarked) [Example 22] | 
1.06 | C=CCOC(c1c(C(C)C)nn2ccccc12)C(C)C (centres unmarked) [Example 23] | 0.5
5.09 | CCCOC(c1c(C(C)C)nn2ccccc12)C(C)C (centres unmarked) [Example 24] | 
9.98 | CCCCOC(c1c(C(C)C)nn2ccccc12)C(C)C (centres unmarked) [Example 25] | 

Antagonistic activity against SRS-A IC50 (SRS-A) [µg/mL] | Structure (SMILES) | ED75 [1] [mg/kg]
18.4 | COC(c1c(C(C)C)nn2cc(C)ccc12)C(C)C (centres unmarked) [Example 26] | 
3.93 | C=CCOC(c1c(C(C)C)nn2cc(C)ccc12)C(C)C (centres unmarked) [Example 27] | 
7.36 | COc1ccc2c(C(OC)C(C)C)c(C(C)C)nn2c1 (centres unmarked) [Example 28] | 
3.84 | C=CCOC(c1c(C(C)C)nn2cc(OC)ccc12)C(C)C (centres unmarked) [Example 29] | 
1.52 | CCC(OC)(c1c(C(C)C)nn2ccccc12)C(C)C (centres unmarked) [Example 30] | 1
0.27 | C=CCOC(CC)(c1c(C(C)C)nn2ccccc12)C(C)C (centres unmarked) [Example 31, 2-isopropyl-3-(1-allyloxy-1-ethyl-2-methylpropyl)pyrazolo[1,5-a]pyridine] | 0.5
0.52 | C=CCOC(CCC)(c1c(C(C)C)nn2ccccc12)C(C)C (centres unmarked) [Example 32] | 2
2.36 | C=CCOC(CCCC)(c1c(C(C)C)nn2ccccc12)C(C)C (centres unmarked) [Example 33] | 
7.33 | CC(C)c1nn2ccccc2c1C(OCC1CO1)C(C)C (centres unmarked) [Example 34, 2-isopropyl-3-[1-(2,3-epoxypropoxy)-2-methylpropyl]pyrazolo[1,5-a]pyridine] | 
1.23 | CCCOC(CC)(c1c(C(C)C)nn2ccccc12)C(C)C (centres unmarked) [Example 35, 2-Isopropyl-3-(1-ethyl-1-propoxy-2-methylpropyl)pyrazolo[1,5-a]pyridine] | 0.5
14.9 | CC(O)COC(c1c(C(C)C)nn2ccccc12)C(C)C (centres unmarked) [Example 36, 2-Isopropyl-3-[1-(2-hydroxypropoxy)-2-methylpropyl]pyrazolo[1,5-a]pyridine] | 
14.7 | COCc1c(C(C)C)nn2ccccc12 [Example 37, 2-Isopropyl-3-methoxymethylpyrazolo[1,5-a]pyridine] | 
2.8 | CCCc1c(C(C)C)nn2ccccc12 [Example 39, 2-Isopropyl-3-propylpyrazolo[1,5-a]pyridine] | 
2.7 | CC(C)=Cc1c(C(C)C)nn2ccccc12 [Example 40] | 
2.45 | C=C(c1c(C(C)C)nn2ccccc12)C(C)C [Example 41] | 
0.44 | CC=C(c1c(C(C)C)nn2ccccc12)C(C)C [Example 42] | 
2.7 | CC(C)Cc1c(C(C)C)nn2ccccc12 [Example 43] | 
1.6 | CC(C)c1nn2ccccc2c1C(C)C(C)C (centres unmarked) [Example 44] | 0.5
